As a reminder, the melting point is the temperature of the solid-liquid transition.

In turn, `Cn1cc2c(=O)n(Cc3ccccc3-c3ccccc3)cnc2n1` [Compound 24, 5-(2-phenylbenzyl)-2-methyl-2,5-dihydropyrazolo[3,4-d]-pyrimidin-4-one] registered a melting point of 189 to 191 °C.
The same measure for `O=c1c2cn(-c3ccccc3)nc2ncn1Cc1ccccn1` [Compound 53, 5-(2-pyridinylmethyl)-2-phenyl-2,5-dihydropyrazolo[3,4-d]-pyrimidin-4-one]: 199 to 201 °C.
In turn, `Cn1cc2c(=O)n(Cc3ccccc3[N+](=O)[O-])cnc2n1` [Compound 26, 5-(2-nitrobenzyl)-2-methyl-2,5-dihydropyrazolo[3,4-d]-pyrimidin-4-one] gave a melting point of 220 to 222 °C.
For `CCn1cc2c(=O)n(Cc3c(F)cccc3Cl)cnc2n1` [Compound 35, 5-(2-chloro-6-fluorobenzyl)-2-ethyl-2,5-dihydropyrazolo[3,4-d]pyrimidin-4-one] the value was 207 to 209 °C; for `COc1ccccc1Cn1cnc2n[nH]cc2c1=O` [Compound 7, 5-(2-methoxybenzyl)-2,5-dihydropyrazolo[3,4-d]-pyrimidin-4-one], 188 to 189 °C; for `Cc1ccc(Cn2cnc3nn(Cc4ccccc4)cc3c2=O)cc1` [Compound 55, 5-(4-methylbenzyl)-2-benzyl-2,5-dihydropyrazolo[3,4-d]-pyrimidin-4-one], 167 to 169 °C.
For `Cn1cc2c(=O)n(Cc3ccc(Cl)cc3)cnc2n1` [Compound 27, 5-(4-chlorobenzyl)-2-methyl-2,5-dihydropyrazolo[3,4-d]-pyrimidin-4-one] the value was 209 to 210 °C; for `CCCn1cc2c(=O)n(Cc3c(F)cccc3F)cnc2n1` [Compound 41, 5-(2,6-difluorobenzyl)-2-propyl-2,5-dihydropyrazolo[3,4-d]pyrimidin-4-one], 167 to 168 °C; for `Cn1cc2c(=O)n(Cc3c(Cl)cccc3Cl)cnc2n1` [Compound 25, 5-(2,6-dichlorobenzyl)-2-methyl-2,5-dihydro-pyrazolo[3,4-d]pyrimidin-4-one], 200 to 202 °C.
The same measure for `Cn1cc2c(=O)n(Cc3c(F)cccc3Cl)cnc2n1` [Compound 23, 5-(2-chloro-6-fluorobenzyl)-2-methyl-2,5-dihydropyrazolo[3,4-d]pyrimidin-4-one]: 216 to 218 °C; for `CCCn1cc2c(=O)n(Cc3ccccn3)cnc2n1` [Compound 42, 5-(2-pyridinylmethyl)-2-propyl-2,5-dihydropyrazolo[3,4-d]-pyrimidin-4-one]: 179 to 181 °C.
With `O=c1c2cn(Cc3ccccc3)nc2ncn1Cc1ccccn1` [Compound 57, 5-(2-pyridinylmethyl)-2-benzyl-2,5-dihydropyrazolo[3,4-d]-pyrimidin-4-one], the melting point lay in the range of 182 to 184 °C.
Turning to `Cc1cc(C)c(Cn2cnc3n[nH]cc3c2=O)c(C)c1` [Compound 9, 5-(2,4,6-trimethylbenzyl)-2,5-dihydropyrazolo[3,4-d]-pyrimidin-4-one], the melting point fell in the range of 199 to 200 °C.
For `Cn1cc2c(=O)n(Cc3ccc(F)cc3)cnc2n1` [Compound 31, 5-(4-fluorobenzyl)-2-methyl-2,5-dihydropyrazolo[3,4-d]-pyrimidin-4-one] the value was 216 to 217 °C; for `Cn1cc2c(=O)n(Cc3ccccc3C(F)(F)F)cnc2n1` [Compound 20, 5-(2-trifluoromethylbenzyl)-2-methyl-2,5-dihydropyrazolo[3,4-d]pyrimidin-4-one], 215 to 217 °C; for `O=c1c2c[nH]nc2ncn1Cc1cccnc1` [Compound 11, 5-(3-pyridinylmethyl)-2,5-dihydropyrazolo[3,4-d]-pyrimidin-4-one], 200 to 201 °C.
The same measure for `Cc1cc(C)c(Cn2cnc3nn(C)cc3c2=O)c(C)c1` [Compound 32, 5-(2,4,6-trimethylbenzyl)-2-methyl-2,5-dihydropyrazolo[3,4-d]pyrimidin-4-one]: 182 to 184 °C; for `CCn1cc2c(=O)n(Cc3ccc(C)cc3)cnc2n1` [Compound 36, 5-(4-methylbenzyl)-2-ethyl-2,5-dihydropyrazolo[3,4-d]-pyrimidin-4-one]: 178 to 179 °C.
The same measure for `CC(C)n1cc2c(=O)n(Cc3c(F)cccc3F)cnc2n1` [Compound 45, 5-(2,6-difluorobenzyl)-2-isopropyl-2,5-dihydropyrazolo[3,4-d]pyrimidin-4-one]: 156 to 157 °C; for `Cc1ccc(Cn2cnc3nn(C(C)C)cc3c2=O)cc1` [Compound 44, 5-(4-methylbenzyl)-2-isopropyl-2,5-dihydropyrazolo[3,4-d]-pyrimidin-4-one]: 145 to 147 °C; for `O=c1c2cn(Cc3ccccn3)nc2ncn1Cc1c(F)cccc1F` [Compound 59, 5-(2,6-difluorobenzyl)-2-pyridin-2-ylmethyl-2,5-dihydropyrazolo[3,4-d]pyrimidin-4-one]: 174 to 175 °C.
Molecule `Cc1nc2nn(C)cc2c(=O)n1Cc1c(F)cccc1F` [Compound 64, 5-(2,6-difluorobenzyl)-2,6-dimethyl-2,5-dihydropyrazolo[3,4-d]pyrimidin-4-one] yielded a melting point of 201 to 202 °C.
For `Cn1cc2c(=O)n(Cc3ccccc3Cl)cnc2n1` [Compound 18, 5-(2-chlorobenzyl)-2-methyl-2,5-dihydropyrazolo[3,4-d]-pyrimidin-4-one] the value was 205 to 206 °C; for `CCCCn1cc2c(=O)n(Cc3c(F)cccc3F)cnc2n1` [Compound 49, 5-(2,6-difluorobenzyl)-2-butyl-2,5-dihydropyrazolo[3,4-d]-pyrimidin-4-one], 151 to 152 °C.
The same measure for `O=c1c2cn(-c3ccccc3)nc2ncn1Cc1c(F)cccc1Cl` [Compound 50, 5-(2-chloro-6-fluorobenzyl)-2-phenyl-2,5-dihydropyrazolo[3,4-d]pyrimidin-4-one]: 195 to 197 °C.
For `CCCCn1cc2c(=O)n(Cc3c(F)cccc3Cl)cnc2n1` [Compound 47, 5-(2-chloro-6-fluorobenzyl)-2-butyl-2,5-dihydropyrazolo[3,4-d]pyrimidin-4-one] the value was 156 to 157 °C; for `Cn1cc2c(=O)n(Cc3ccc(Cl)cc3Cl)cnc2n1` [Compound 28, 5-(2,4-dichlorobenzyl)-2-methyl-2,5-dihydropyrazolo[3,4-d]pyrimidin-4-one], 218 to 219 °C; for `Cc1ccc(Cn2cnc3nn(C)cc3c2=O)cc1` [Compound 16, 5-(4-methylbenzyl)-2-methyl-2,5-dihydropyrazolo[3,4-d]-pyrimidin-4-one], 224 to 226 °C.
`Cn1cc2c(=O)n(Cc3ccccc3C#N)cnc2n1` [Compound 30, 5-(2-cyanobenzyl)-2-methyl-2,5-dihydropyrazolo[3,4-d]-pyrimidin-4-one] yielded a melting point of 198 to 199 °C.
Regarding `O=c1c2cn(Cc3ccccc3)nc2ncn1Cc1c(F)cccc1Cl` [Compound 54, 5-(2-chloro-6-fluorobenzyl)-2-benzyl-2,5-dihydropyrazolo[3,4-d]pyrimidin-4-one], the melting point lay in the range of 176 to 177 °C.
For `Cc1nc2nn(C)cc2c(=O)n1Cc1ccccc1C(F)(F)F` [Compound 63, 5-(2-trifluoromethylbenzyl)-2,6-dimethyl-2,5-dihydropyrazolo[3,4-d]pyrimidin-4-one] the value was 192 to 193 °C; for `O=c1c2c[nH]nc2ncn1Cc1ccncc1` [Compound 12, 5-(4-pyridinylmethyl)-2,5-dihydropyrazolo[3,4-d]-pyrimidin-4-one], 220 to 221 °C; for `CCn1cc2c(=O)n(Cc3ccccn3)cnc2n1` [Compound 38, 5-(2-pyridinylmethyl)-2-ethyl-2,5-dihydropyrazolo[3,4-d]-pyrimidin-4-one], 190 to 191 °C.
As for `O=c1c2cn(Cc3ccccc3)nc2ncn1Cc1c(F)cccc1F` [Compound 56, 5-(2,6-difluorobenzyl)-2-benzyl-2,5-dihydropyrazolo[3,4-d]pyrimidin-4-one], the melting point is 173 to 174 °C.
For `CC(C)n1cc2c(=O)n(Cc3ccccn3)cnc2n1` [Compound 46, 5-(2-pyridinylmethyl)-2-isopropyl-2,5-dihydropyrazolo[3,4-d]pyrimidin-4-one] the value was 163 to 164 °C; for `Cn1cc2c(=O)n(Cc3ccccn3)cnc2n1` [Compound 33, 5-(2-pyridinylmethyl)-2-methyl-2,5-dihydropyrazolo[3,4-d]-pyrimidin-4-one], 203 to 205 °C.
For `Cc1cccc(Cn2cnc3nn(C)cc3c2=O)c1` [Compound 15, 5-(3-methylbenzyl)-2-methyl-2,5-dihydropyrazolo[3,4-d]-pyrimidin-4-one] the value was 114 to 117 °C; for `Cc1nc2n[nH]cc2c(=O)n1Cc1ccccc1Cl` [Compound 61, 5-(2-chlorobenzyl)-6-methyl-2,5-dihydropyrazolo[3,4-d]-pyrimidin-4-one], 222 to 224 °C; for `Cc1ccc(Cn2cnc3nn(-c4ccccc4)cc3c2=O)cc1` [Compound 51, 5-(4-methylbenzyl)-2-phenyl-2,5-dihydropyrazolo[3,4-d]-pyrimidin-4-one], 182 to 183 °C.
The same measure for `O=c1c2cn(-c3ccccc3)nc2ncn1Cc1c(F)cccc1F` [Compound 52, 5-(2,6-difluorobenzyl)-2-phenyl-2,5-dihydropyrazolo[3,4-d]pyrimidin-4-one]: 189 to 191 °C; for `CCCn1cc2c(=O)n(Cc3ccc(C)cc3)cnc2n1` [Compound 40, 5-(4-methylbenzyl)-2-propyl-2,5-dihydropyrazolo[3,4-d]-pyrimidin-4-one]: 157 to 158 °C.
For `Cn1cc2c(=O)n(Cc3ccccc3I)cnc2n1` [Compound 29, 5-(2-iodobenzyl)-2-methyl-2,5-dihydropyrazolo[3,4-d]-pyrimidin-4-one], the melting point was 187 to 190 °C.
As to `Cn1cc2c(=O)n(Cc3ccc(C(F)(F)F)cc3)cnc2n1` [Compound 22, 5-(4-trifluoromethylbenzyl)-2-methyl-2,5-dihydropyrazolo[3,4-d]pyrimidin-4-one], the melting point was in the range of 211 to 212 °C.
